Results: US11464802B2, “3-substituted piperidine compounds for Cbl-b inhibition, and use thereof” (Nurix Therapeutics, Inc., priority 2019, dated 2022)

Columns and labels:
[1] = molecular target: T1, Cbl-b (Homo sapiens (Human), UniProt Q13191); assay: Cbl-b displacement assay (Cbl-b inhibition assay), Biological Example 8; assay type: binding; settings: 0.5 nM Cbl-b final concentration (High); Table 8-1; read-out: Cbl-b IC50 (High)
Protocol: (§1) Candidate compounds were evaluated for their ability to bind and inhibit Cbl-b, an E3 ubiquitin-protein ligase, as evidenced by their ability to displace a fluorophore-labeled probe bound to Cbl-b.
(§2) The ability of candidate compounds to displace a known inhibitor and thereby inhibit Cbl-b activity was measured by monitoring the interaction of Cbl-b with a fluorophore-labeled probe in the presence of the candidate compound. A truncated variant of Cbl-b (UniProt number Q13191) containing residues 36-427 and an Avitag at its N-terminus was co-expressed with BirA biotin ligase and purified using a standard protocol (see Dou et al., Nature Structural and Molecular Biology 8: 982-987, 2013; Avidity LLC).
(§3) Fluorescently-labeled inhibitor probe was synthesized and tagged with BODIPY FL. Cbl-b displacement assays were performed in a 384-well plate at room temperature in a 10 μl reaction volume by pre-incubating 0.5 nM Cbl-b or 0.125 nM Cbl-b (final concentration, indicated as “High” and “Low”, respectively) in an assay buffer containing 20 mM HEPES pH 7.5, 150 mM NaCl, 0.01% Triton X-100, 0.01% BSA and 0.5 mM TCEP in the presence of a candidate compound in 1% DMSO (final concentration) for 1 hour. After incubation in the presence of the candidate compound, the plate was incubated for an additional 1 hour in the presence of an approximate EC40 binding saturation consisting of 150 nM fluorescently-labeled inhibitor probe and 2 nM Streptavidin-Terbium (Cisbio) (final concentrations). Following the 1 hour incubation, the plates were read for TR-FRET signal at 520/620 nM using an Envision plate reader (Perkin Elmer).
(§4) The resulting data for the Cbl-b activity assays were analyzed using standard methods to determine the IC50 values for the tested compounds.

[2] = tested on: primary human total T-cells; assay: Primary human total T-cell activation: CD25 surface staining, Biological Example 9; assay type: cell-based; settings: 48 hours, fold change over baseline; for fold induction at 0.3 µM: inhibitor 0.3 μM; for fold induction at 0.3 µM / fold induction at 3 µM: Table 9-1; for fold induction at 1 µM: inhibitor 1 μM; for fold induction at 3 µM: inhibitor 3 μM
[3] = tested on: primary human total T-cells; assay: Primary human total T-cell activation: IL-2 secretion, Biological Example 9; assay type: cell-based; settings: 48 hours, fold change over baseline; for fold induction at 0.3 µM: inhibitor 0.3 μM; for fold induction at 0.3 µM / fold induction at 3 µM: Table 9-1; for fold induction at 1 µM: inhibitor 1 μM; for fold induction at 3 µM: inhibitor 3 μM
[4] = molecular target: T1, Cbl-b; assay: Cbl-b displacement assay (Cbl-b inhibition assay), Biological Example 12; assay type: binding; settings: 0.5 nM Cbl-b final concentration (High); Table 12-1; read-out: Cbl-b IC50 (High)
Protocol: as §1, §2, §3, §4

[5] = tested on: primary human total T-cells; assay: Primary human total T-cell activation: IL-2 secretion, Biological Example 2; assay type: cell-based; settings: 48 hours, fold change over baseline; for fold induction at 0.3 µM: inhibitor 0.3 μM; for fold induction at 1 µM: inhibitor 1 μM; for fold induction at 3 µM: inhibitor 3 μM
[6] = tested on: primary human total T-cells; assay: Primary human total T-cell activation: CD25 surface staining, Biological Example 13; assay type: cell-based; settings: 48 hours, fold change over baseline; for fold induction at 0.3 µM: inhibitor 0.3 μM; for fold induction at 0.3 µM / fold induction at 3 µM: Table 13-1; for fold induction at 1 µM: inhibitor 1 μM; for fold induction at 3 µM: inhibitor 3 μM
[7] = tested on: primary human total T-cells; assay: Primary human total T-cell activation: IL-2 secretion, Biological Example 13; assay type: cell-based; settings: 48 hours, fold change over baseline; for fold induction at 0.3 µM: inhibitor 0.3 μM; for fold induction at 0.3 µM / fold induction at 3 µM: Table 13-1; for fold induction at 1 µM: inhibitor 1 μM; for fold induction at 3 µM: inhibitor 3 μM
[8] = molecular target: T1, Cbl-b; assay: Cbl-b displacement assay (Cbl-b inhibition assay), TR-FRET probe displacement, Biological Example 1; assay type: binding
Method in brief: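 TR-FRET displacement of a BODIPY FL-labelled inhibitor probe (150 nM, ~EC40) from biotin-Avitag truncated Cbl-b, detected via 2 nM streptavidin-Tb, 1 h, room temperature. Compound in 1% DMSO pre-incubated 1 h with Cbl-b at 0.5 nM (High) or 0.125 nM (Low) in 20 mM HEPES pH 7.5, 150 mM NaCl, 0.5 mM TCEP.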

[9] = tested on: primary human total T-cells; assay: Primary human total T-cell activation: CD25 surface staining, Biological Example 2; assay type: cell-based; settings: 48 hours, fold change over baseline; for fold induction at 0.3 µM: inhibitor 0.3 μM; for fold induction at 1 µM: inhibitor 1 μM; for fold induction at 3 µM: inhibitor 3 μM
[10] = anti-CD3/anti-CD28 co-stimulation
[11] = anti-CD3/anti-CD28 co-stimulation, Table 9-1, read-out: CD25 staining CD3/CD28 1 μM
[12] = anti-CD3 alone, Table 9-1, read-out: CD25 staining CD3 1 μM
[13] = anti-CD3/anti-CD28 co-stimulation, Table 9-1, read-out: IL-2 secretion CD3/CD28 1 μM
[14] = anti-CD3 alone, Table 9-1, read-out: IL-2 secretion CD3 1 μM
[15] = anti-CD3/anti-CD28 co-stimulation, read-out: IL-2 secretion CD3/CD28 1 μM
[16] = anti-CD3 alone, read-out: IL-2 secretion CD3 1 μM
[17] = anti-CD3/anti-CD28 co-stimulation, Table 13-1, read-out: CD25 staining CD3/CD28 1 μM
[18] = anti-CD3 alone, Table 13-1, read-out: CD25 staining CD3 1 μM
[19] = anti-CD3/anti-CD28 co-stimulation, Table 13-1, read-out: IL-2 secretion CD3/CD28 1 μM
[20] = anti-CD3 alone, Table 13-1, read-out: IL-2 secretion CD3 1 μM
[21] = 0.5 nM Cbl-b final concentration (High), read-out: Cbl-b activity IC50 (High)
[22] = Cbl-b concentration (High or Low) not given, read-out: IC50 values in the Cbl-b inhibition assay of Biological Example 1
[23] = anti-CD3/anti-CD28 co-stimulation, read-out: CD25 staining CD3/CD28 1 μM
[24] = anti-CD3 alone, read-out: CD25 staining CD3 1 μM

T1 sequence (Q13191 36-427): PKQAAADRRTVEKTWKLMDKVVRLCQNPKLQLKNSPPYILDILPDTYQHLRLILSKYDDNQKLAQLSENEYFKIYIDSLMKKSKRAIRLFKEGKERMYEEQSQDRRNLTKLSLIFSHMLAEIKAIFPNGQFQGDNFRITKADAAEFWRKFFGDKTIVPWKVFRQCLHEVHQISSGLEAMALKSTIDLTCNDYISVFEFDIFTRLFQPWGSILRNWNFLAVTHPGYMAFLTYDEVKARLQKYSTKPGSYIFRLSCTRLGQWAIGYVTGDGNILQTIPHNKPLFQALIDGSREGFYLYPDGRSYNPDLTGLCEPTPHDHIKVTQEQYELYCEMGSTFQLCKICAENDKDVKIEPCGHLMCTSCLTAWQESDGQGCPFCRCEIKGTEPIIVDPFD

| SMILES | IC50 [1] [nM] | fold induction at 0.3 µM [2, 10] | fold induction at 1 µM [2, 11] | fold induction at 1 µM [2, 12] | fold induction at 3 µM ([2]; anti-CD3 alone) | fold induction at 0.3 µM [3, 10] | fold induction at 1 µM [3, 13] | fold induction at 1 µM [3, 14] | fold induction at 3 µM ([3]; anti-CD3 alone) | IC50 [4] [nM] | fold induction at 0.3 µM [5, 10] | fold induction at 1 µM [5, 15] | fold induction at 1 µM [5, 16] | fold induction at 3 µM ([5]; anti-CD3 alone) | fold induction at 0.3 µM [6, 10] | fold induction at 1 µM [6, 17] | fold induction at 1 µM [6, 18] | fold induction at 3 µM ([6]; anti-CD3 alone) | fold induction at 0.3 µM [7, 10] | fold induction at 1 µM [7, 19] | further results |
| --- | --- | --- | --- | --- | --- | --- | --- | --- | --- | --- | --- | --- | --- | --- | --- | --- | --- | --- | --- | --- | --- |
| CCOc1cc(C2(Cc3nncn3C)COC2)cc(N2Cc3c(cc(CN4CCC(F)(F)[C@H](C)C4)cc3C(F)(F)F)C2=O)n1 [Compound 28, (R)-6-((4,4-difluoro-3-methylpiperidin-1-yl)methyl)-2-(6-ethoxy-4-(3-((4-methyl-4H-1,2,4-triazol-3-yl)methyl)oxetan-3-yl)pyridin-2-yl)-4-(trifluoromethyl)isoindolin-1-one] | 1 to 5 | 1.25 to 1.39 | < 1.24 | 1.05 to 1.14 | < 1.04 | 10 to 15 | 10 to 15 | 0.34 to 0.66 | 0.34 to 0.66 | 1 to 5 | > 15 | > 15 | 0.34 to 0.66 | 0.34 to 0.66 | 1.25 to 1.39 | < 1.24 | 1.05 to 1.14 | < 1.04 | 11 to 15 | 11 to 15 | fold induction at 1 µM [7, 20]: 0.34 to 0.66; fold induction at 3 µM ([7]; anti-CD3 alone): 0.34 to 0.66; IC50 [8, 21]: 1 to 5 nM; IC50 [8, 22]: 1 to 5 nM; fold induction at 0.3 µM [9, 10]: 1.25 to 1.39; fold induction at 1 µM [9, 23]: < 1.24; fold induction at 1 µM [9, 24]: 1.05 to 1.14; fold induction at 3 µM ([9]; anti-CD3 alone): < 1.04 |
| C[C@@H]1CN(Cc2cc(C(=O)Nc3cccc(C4(Cc5nncn5C)COC4)c3)nc(C3CC3)c2)CCC1(F)F [Compound 32, 6-cyclopropyl-4-{[(3R)-4,4-difluoro-3-methylpiperidin-1-yl]methyl}-N-(3-{3-[(4-methyl-1,2,4-triazol-3-yl)methyl]oxetan-3-yl}phenyl)pyridine-2-carboxamide] | < 1 | > 1.39 | > 1.39 | > 1.14 | > 1.14 | > 15 | > 15 | > 0.66 | > 0.66 | < 1 | > 15 | > 15 | 0.34 to 0.66 | 0.34 to 0.66 | > 1.39 | > 1.39 | > 1.14 | > 1.14 | > 15 | > 15 | fold induction at 1 µM [7, 20]: > 0.66; fold induction at 3 µM ([7]; anti-CD3 alone): > 0.66; IC50 [8, 21]: < 1 nM; IC50 [8, 22]: < 1 nM; fold induction at 0.3 µM [9, 10]: < 1.24; fold induction at 1 µM [9, 23]: < 1.24; fold induction at 1 µM [9, 24]: 1.05 to 1.14; fold induction at 3 µM ([9]; anti-CD3 alone): 1.05 to 1.14 |
